This is an account of results in ChEMBL document CHEMBL2390818, “Peripherally acting novel lipo-endomorphin-1 peptides in neuropathic pain without producing constipation” (Bioorg Med Chem, 2013).

For data set [1], the system named is Rattus norvegicus. Nature of the data set: Antiallodynic activity in iv dosed Sprague-Dawley rat chronic constriction injury model assessed as change in ipsilateral hindpaw withdrawal threshold administered as single bolus dose separated by 2 to 3 days wash-out period. Format: functional.
Data set [2] relates to Rattus norvegicus. Nature of the data set: Antiallodynic activity in Sprague-Dawley rat chronic constriction injury model assessed as change in ipsilateral hindpaw withdrawal threshold at 0.16 to 16 umol/kg, iv administered as single bolus dose separated by 2 to 3 days wash-out period. The format is functional, organism-based.
Data set [3] relates to Rattus norvegicus. Nature of the data set: Toxicity in Sprague-Dawley rat castor oil-induced diarrhoea model assessed as induction of constipation at 1.6 to 16 umol/kg, iv administered as single bolus dose incubated for 5 mins prior to castor oil-challenge measured after 8 hrs. The format is organism-based. The following applies: in vivo.
For data set [4], the system named is Rattus norvegicus. Description: Toxicity in Sprague-Dawley rat assessed as induction of constipation measured as gastrointestinal propulsion rate at 16 umol/kg, iv administered as single bolus dose prior to aqueous activated charcoal suspension treatment measured after 1 hr (reference value: 65.3 +/- 3.1%). The format is organism-based. The following applies: in vivo.

The test system of data set [5] is Rattus norvegicus. Nature of the data set: Toxicity in Sprague-Dawley rat assessed as induction of respiratory depression measured as change in hypercapnia-induced stimulation of minute ventilation at 1.6 umol/kg, iv administered as single bolus dose after 0.5 to 2 hrs. The format is organism-based. To be noted: in vivo.
Data set [6] concerns Rattus norvegicus. Description: Antiallodynic activity in Sprague-Dawley rat chronic constriction injury model assessed as change in ipsilateral hindpaw withdrawal threshold at 0.5 umol/kg, iv administered as single bolus dose separated by 2 to 3 days wash-out period. Format: functional, organism-based.
Data set [7] deals with Rattus norvegicus. Nature of the data set: Antiallodynic activity in iv dosed Sprague-Dawley rat chronic constriction injury model assessed as change in ipsilateral hindpaw withdrawal threshold administered as single bolus dose separated by 2 to 3 days wash-out period measured at 15 mins to 2 hrs post dose. Format: functional, organism-based.
Data set [8] has as its system Rattus norvegicus. Description: Antinociceptive activity in contralateral hindpaw of Sprague-Dawley rat chronic constriction injury model at 5 umol/kg, iv administered as single bolus dose separated by 2 to 3 days wash-out period. The format is functional, organism-based.
Data set [9] deals with Rattus norvegicus. Description: Antiallodynic activity in Sprague-Dawley rat chronic constriction injury model assessed as change in ipsilateral hindpaw withdrawal threshold at 0.5 to 5 umol/kg, iv administered as single bolus dose. Format: functional, organism-based.
For data set [10], the system named is Rattus norvegicus. Description: Antiallodynic activity in iv dosed Sprague-Dawley rat chronic constriction injury model assessed as change in ipsilateral hindpaw withdrawal threshold administered as single bolus dose. Format: functional.

Active and inactive are the calls of the source. Peptide text beside a SMILES is read from it.

As for `CN1CC[C@]23c4c5ccc(O)c4O[C@H]2[C@@H](O)C=C[C@H]3[C@H]1C5`, the ED50 (as a rule, the dose at which the effect has come halfway, by size or by number of responders) in [1] worked out at 2.64 µmol/kg.

Turning to `Cc1cc(O)cc(C)c1C[C@H](N)C(=O)N1CCC[C@H]1C(=O)N[C@@H](Cc1c[nH]c2ccccc12)C(=O)N[C@@H](Cc1ccccc1)C(N)=O`, the outcome in [2] was inactive.

On to `NC(=O)[C@H](Cc1ccccc1)NC(=O)[C@H](Cc1c[nH]c2ccccc12)NC(=O)[C@@H]1CCCN1C(=O)[C@@H](N)Cc1ccc(O)cc1`, for which the result in [2] was inactive.

For `CCCCCCC(N)C(=O)N[C@@H](Cc1ccc(O)cc1)C(=O)N1CCC[C@H]1C(=O)N[C@@H](Cc1c[nH]c2ccccc12)C(=O)N[C@@H](Cc1ccccc1)C(N)=O` (stereo partly specified) (HELM PEPTIDE1{[CCCCCCC(N)C(=O)[*:2]].Y.P.W.F.[am]}$$$$V2.0), the Activity entry in data set [3] is “Non-toxic”; in [4], 77%; in data set [5], “Non-toxic”; in data set [7], “Dose-dependent effect”. The result in data set [6] and in data set [9] was Active. Further, the figures for the ED50 in data set [1] and in data set [10] were 6.58 µmol/kg and 6.64 µmol/kg, respectively. In data set [8], the outcome was inactive.

Turning to `CCCCCCC(N)C(=O)N[C@@H](Cc1c(C)cc(O)cc1C)C(=O)N1CCC[C@H]1C(=O)N[C@@H](Cc1c[nH]c2ccccc12)C(=O)N[C@@H](Cc1ccccc1)C(N)=O` (stereo partly specified) (HELM PEPTIDE1{[CCCCCCC(N)C(=O)[*:2]].[Cc1cc(O)cc(C)c1C[C@H](N[*:1])C(=O)[*:2]].P.W.F.[am]}$$$$V2.0), the result in data set [6] was Active. In addition, in [7], the Activity result was “Dose-dependent effect”. Moreover, in data set [1], the ED50 came to 6.18 µmol/kg. The outcome in data set [8] was inactive.
